Like-named read-outs stand apart in the source and are kept apart here.
Assays:
MDA-MB-231 (breast) = experiment: SRB cytotoxicity assay, MDA-MB-231; type: cell-based, human
Experimental: (§1) A cytotoxicity test was evaluated using sulforhodamine B (SRB) assay on six human cancer cell lines. Human cancer cell lines, ACHN (kidney), NCI-H23 (lung), PC-3 (prostate), NUGC-3 (stomach), MDA-MB-231 (breast), and HCT-15 (colon) were purchased from American Type Culture Collection (ATCC). Cells were cultured in a RPMI 1640 medium added with 10% fetal bovine serum (FBS) at 37° C. in a 5% CO2 incubator. The cells (8×10^3 cells/well) were dispensed into a 96-well plate, cultured for one day, and then treated with Compounds 1-8 dissolved in 0.1% DMSO, (R)-(6-(1-((2-aminobenzoyl)oxy)ethyl)phenazine-1-carboxylic acid as Compound 9, and adriamycin as a positive control group. The cells were cultured for 48 hours, fixed with 50% trichloroacetic acid ([…]) and stained with 0.4% surfohodamine B dissolved in 1% acetic acid. Non-stained cells were removed by washing with 1% acetic acid, and cells bound to a protein were extracted with 10 mM Tris base (pH 10.5) to measure the optical density. Absorbance was measured at 540 nm using a microplate reader, and GI50 values were calculated using GraphPad Prism 4.0.

[1] = system: LPS-induced BV-2 microglia; experiment: NO generation inhibition in LPS-induced BV-2 microglia (Griess reagent); type: cell-based; conditions: compound 1 hour then LPS 200 ng/mL for 24 hours, nitrite by Griess reagent, read-out: IC50 (μM), NO generation inhibitory activity by activated microglia
Experimental: (§2) NO generation to confirm anti-brain neuroinflammatory activity was evaluated by measuring a nitrite concentration in the medium using a Griess reagent, and the cell viability was evaluated using MTT assay. Briefly, BV-2 microglia were cultured in a Dulbecco's modified Eagle's medium (DMEM) supplemented with 5% heat-inactivated FBS and 50 µg/mL of penicillin-streptomycin in a 5% CO2 incubator at 37° C. A 96-well plate dispensed with pre-cultured cells (2.5×10^4 cells/mL) was treated with compounds at various concentrations (10, 20, 50, and 100 μM) for 1 hour, and treated with LPS (200 ng/mL) and cultured for 24 hours. The supernatant was mixed with a Griess reagent and cultured at room temperature for 10 minutes. The nitrite concentration was determined using a sodium nitrite standard solution prepared in a cell culture medium. Absorbance was measured at a wavelength of 540 nm with a microplate reader. To evaluate the cell viability, the 96-well plate dispensed with cells (2.5×10^4 cells/mL) was treated with compounds at various concentrations (10, 20, 50, and 100 μM) for 1 hour, and treated with LPS (200 ng/mL) and cultured for 24 hours. An MTT solution (0.5 mg/mL) was added to each well and cultured at 37° C. for 4 hours. The supernatant was removed, and the formed formazan crystals were dissolved in DMSO. The absorbance was measured at 550 nm using a microplate reader. To determine the IC50 value of Compound 6, NO generation and MTT assay were performed in the same manner as described above, only with different concentrations (0.25, 0.5, and 1 μM) (Table 4). The experiment was repeated 3 times.

NCI-H23 (lung) = experiment: SRB cytotoxicity assay, NCI-H23; type: cell-based, human
Experimental: as §1

PC-3 (prostate) = experiment: SRB cytotoxicity assay, PC-3; type: cell-based, human; conditions: 48 hours
Experimental: as §1

HCT-15 (colon) = experiment: SRB cytotoxicity assay, HCT-15; type: cell-based, human
Experimental: as §1

ACHN (kidney) = experiment: SRB cytotoxicity assay, ACHN; type: cell-based, human; conditions: 48 hours
Experimental: as §1

NUGC-3 (stomach) = experiment: SRB cytotoxicity assay, NUGC-3; type: cell-based, human; conditions: for GI50: SRB assay, 48 hours
Experimental: as §1

BV-2 microglia = experiment: Cell viability of BV-2 microglia (MTT assay); type: cell-based; conditions: LPS 200 ng/mL, 24 hours
Experimental: as §2, with “To determine the IC50 value of Compound 6, NO generation and MTT assay were performed in the same manner as described above, only with different concentrations (0.25, 0.5, and 1 μM) (Table 4). The experiment was repeated 3 times.” left out

[2] = Homo sapiens, MDA-MB-231, 48 hours
[3] = Homo sapiens, NCI-H23, 48 hours
[4] = Homo sapiens, NUGC-3, read-out: GI50, NUGC-3

| SMILES | GI50 (MDA-MB-231 (breast); [2]) | IC50 ([1]; Mus musculus) | GI50 (NCI-H23 (lung); [3]) | GI50 (PC-3 (prostate); Homo sapiens) | GI50 (HCT-15 (colon); Homo sapiens, HCT-15, 48 hours) | GI50 (ACHN (kidney); Homo sapiens, ACHN) | GI50 (NUGC-3 (stomach); [4]) | GI50 (MDA-MB-231 (breast); 48 hours) | IC50 [1] | GI50 (NCI-H23 (lung); 48 hours) | GI50 (PC-3 (prostate)) | GI50 (HCT-15 (colon); 48 hours) | GI50 (ACHN (kidney)) | GI50 (NUGC-3 (stomach); read-out: GI50, NUGC-3) | cytotoxicity in cell viability test (BV-2 microglia) | GI50 (NUGC-3 (stomach); Homo sapiens, NUGC-3, read-out: GI50 value, gastric cancer cells NUGC-3) | cytotoxicity stronger than Adriamycin, NUGC-3 (NUGC-3 (stomach); ratio of GI50 versus Adriamycin) |
| --- | --- | --- | --- | --- | --- | --- | --- | --- | --- | --- | --- | --- | --- | --- | --- | --- | --- |
| C[C@@H](c1cc(C(=O)O)c2nc3cccc([C@@H](C)O)c3nc2c1)c1cccc2nc3c(C(=O)O)cccc3nc12 [Compound 4, 3-((S)-1-(6-carboxyphenazin-1-yl)ethyl)-6-((R)-1-hydroxyethyl)phenazine-1-carboxylic acid] | > 10 µM | 126 µM | > 10 µM | > 10 µM | > 10 µM | > 10 µM | > 10 µM |  |  |  |  |  |  |  |  |  |  |
| C[C@@H](c1cccc2nc3c(C(=O)O)cccc3nc12)c1ccc(C(=O)O)c2nc3cccc([C@@H](C)O)c3nc12 [Compound 2, 4-((S)-1-(6-carboxyphenazin-1-yl)ethyl)-6-((R)-1-hydroxyethyl)phenazine-1-carboxylic acid] | > 10 µM | 90.2 µM | > 10 µM | > 10 µM | > 10 µM | > 10 µM | > 10 µM |  |  |  |  |  |  |  |  |  |  |
| COc1cccc2c1C(=O)c1c(O)c3c(c(O)c1C2=O)C[C@@](O)(C(=O)CO)C[C@@H]3O[C@H]1C[C@H](N)[C@H](O)[C@H](C)O1 [ADR, Adriamycin, reference compound] | 0.15 µM |  | 0.16 µM | 0.16 µM | 0.17 µM | 0.17 µM | 0.15 µM |  |  |  |  |  |  |  |  |  |  |
| C[C@H](c1cc([C@@H](C)O)c2nc3cccc(C(=O)O)c3nc2c1)c1cccc2nc3c(C(=O)O)cccc3nc12 [Compound 5, 8-((R)-1-(6-carboxyphenazin-1-yl)ethyl)-6-((R)-1-hydroxyethyl)phenazine-1-carboxylic acid] | > 10 µM | 27.4 µM | > 10 µM | > 10 µM | > 10 µM | > 10 µM | > 10 µM |  |  |  |  |  |  |  |  |  |  |
| C[C@H](c1cccc2nc3c(C(=O)O)cccc3nc12)c1ccc(C(=O)O)c2nc3cccc([C@@H](C)O)c3nc12 [Compound 1, 4-((R)-1-(6-carboxyphenazin-1-yl)ethyl)-6-((R)-1-hydroxyethyl)phenazine-1-carboxylic acid] | > 10 µM | 166 µM | > 10 µM | > 10 µM | > 10 µM | > 10 µM | > 10 µM |  |  |  |  |  |  |  |  |  |  |
| CC(=O)c1cccc2nc3c(C(=O)O[C@H](C)c4cccc5nc6c(C(=O)O)cccc6nc45)cccc3nc12 [Compound 7, (R)-6-(1-((6-acetylphenazine-1-carbonyl)oxy)ethyl)phenazine-1-carboxylic acid] | 0.0523 µM |  | 0.0426 µM | 0.0465 µM | 0.0601 µM | 0.0717 µM | 0.0349 µM |  |  |  |  |  |  |  |  |  |  |
| C[C@@H](OC(=O)c1ccccc1N)c1cccc2nc3c(C(=O)O)cccc3nc12 [Compound 9] |  |  |  |  |  |  |  | > 10 µM | 23.5 µM | > 10 µM | > 10 µM | > 10 µM | > 10 µM | > 10 µM |  |  |  |
| CC(=O)c1cccc2nc3c(C(=O)O)ccc([C@H](C)c4cccc5nc6c(C(=O)O)cccc6nc45)c3nc12 [Compound 3, (R)-6-acetyl-4-(1-(6-carboxyphenazin-1-yl)ethyl)phenazine-1-carboxylic acid] | > 10 µM | 34.7 µM | > 10 µM | > 10 µM | > 10 µM | > 10 µM | > 10 µM |  |  |  |  |  |  |  |  |  |  |
| C[C@@H](O)c1cccc2nc3c(C(=O)O)cccc3nc12 [Compound 8, (R)-Saphenic acid] |  |  |  |  |  |  |  | > 10 µM | 16.3 µM | > 10 µM | > 10 µM | > 10 µM | > 10 µM | > 10 µM |  |  |  |
| C[C@@H](O)c1cccc2nc3c(C(=O)O[C@H](C)c4cccc5nc6c(C(=O)O)cccc6nc45)cccc3nc12 [Compound 6, 6-((R)-1-((6-((R)-1-hydroxyethyl)phenazine-1-carbonyl)oxy)ethyl)phenazine-1-carboxylic acid] | 0.0096 µM | 0.3 µM | 0.0096 µM | 0.0096 µM | 0.0096 µM | 0.0135 µM | 0.0077 µM |  |  |  |  |  |  |  | strong cytotoxicity up to a concentration of 1 μM | 0.0077 µM | 19 times |

Reference: patent publication US20240279204A1, “NOVEL DIPHENAZINE COMPOUND, AND USE THEREOF FOR PREVENTING OR TREATING CANCER OR NEUROINFLAMMATORY DISEASES” (KOREA INSTITUTE OF OCEAN SCIENCE & TECHNOLOGY, priority 2021, published 2024)
